Measured values as given in patent US20090012133A1, “Polymorphic Form of -Acetic Acid” (SMITHKLINE BEECHAM CORPORATION, priority 2006, published 2009).

Assays:
[1] = hygroscopicity of the crystalline form; format: physicochemical
[2] = stability of the crystal form at ambient temperatures; format: physicochemical

Cc1cc(SCc2sc(-c3ccc(C(F)(F)F)cc3)nc2C)ccc1OCC(=O)O [Form 7, {2-methyl-4-[4-methyl-2-(4-trifluoromethylphenyl)thiazol-5-ylmethylthio]phenoxy}-acetic acid]
hygroscopic nature of crystalline form [1]: non-hygroscopic | stability of crystal form [2]: stable
